Results from patent US7109338B2, “1,2-disubstituted 1,4-dihydro-4-oxoquinoline compounds” (priority 1999, dated 2006).
≈ marks a conversion by molar mass, not a printed value.

Legend:
HRV 89 (41617-Gallo) = test: Anti-rhinovirus activity (MTT), HRV89; type: cell-based, human rhinovirus; conditions: HeLa (Ohio strain) cells, MTT method, 33° C.
[1] = system: Poliovirus type 1 (Polio 1, Sabin); test: microbe, parasite or virus in culture; type: cell-based
[2] = system: human rhinovirus type 1B (HRV 1B, B632); test: Anti-rhinovirus activity (MTT), HRV1B; type: cell-based; conditions: HeLa (Ohio strain) cells, MTT method, 33° C.
[3] = system: coxsackievirus type B4 (CB4,JVB); test: In vitro anti-picornavirus activity (MTT), CB4; type: cell-based; conditions: HeLa cells, MTT method, 37° C.
HeLa-S3 cells = test: Cytotoxicity (MTT, without virus), HeLa-S3; conditions: HeLa-S3, no virus, incubated for 4 days
HeLa (Ohio strain)cells = test: Cytotoxicity (MTT, without virus), HeLa(Ohio); conditions: HeLa(Ohio), no virus, incubated for 4 days
HRV 2 (HGP) = test: Anti-rhinovirus activity (MTT), HRV2; type: cell-based, human rhinovirus; conditions: HeLa (Ohio strain) cells, MTT method, 33° C.
HeLa cells = test: Cytotoxicity (MTT, without virus), HeLa; conditions: HeLa, no virus, incubated for 4 days
[4] = system: echovirus type 11 (Echo 11, Gregory); test: In vitro anti-picornavirus activity (MTT), Echo 11; type: cell-based; conditions: HeLa-S3 cells, MTT method, 37° C.
[5] = system: coxsackievirus type A7 (CA7); test: In vitro anti-picornavirus activity (MTT), CA7; type: cell-based; conditions: HeLa-S3 cells, MTT method, 37° C.

Row | SMILES | IC50 HRV89 (HRV 89 (41617-Gallo)) [mg/L] | IC50 Polio 1 [1] [mg/L] | IC50 HRV1B [2] [mg/L] | IC50 CB4 [3] [mg/L] | Cytotoxicity CC50 HeLa-S3 (HeLa-S3 cells) [mg/L] | Cytotoxicity CC50 HeLa(Ohio) (HeLa (Ohio strain)cells) [mg/L] | IC50 HRV2 (HRV 2 (HGP)) [mg/L] | Cytotoxicity CC50 HeLa (HeLa cells) [mg/L] | IC50 Echo 11 [4] [mg/L] | IC50 CA7 [5] [mg/L]
1 | CCn1c(-c2ccccc2)c(C)c(=O)c2c(C)c(OCC(C)C)ccc21 [Compound A188] | 0.25 (≈ 0.715 µM) | 0.31 (≈ 0.887 µM) | 0.81 (≈ 2.32 µM) | 1.1 (≈ 3.15 µM) | >5 | >5 | 0.33 (≈ 0.944 µM) | >5 | 0.27 (≈ 0.773 µM) | 1.2 (≈ 3.43 µM)
2 | COc1ccc(-c2c(C)c(=O)c3c(C)c(OCC(C)C)ccc3n2C)cc1C [Compound A190] | 0.28 (≈ 0.738 µM) | 0.58 (≈ 1.53 µM) | 2.0 (≈ 5.27 µM) | 2.4 (≈ 6.32 µM) | >4 | >4 | 0.57 (≈ 1.5 µM) | >4 | 0.23 (≈ 0.606 µM) | 3.2 (≈ 8.43 µM)
3 | Cc1c(-c2ccccc2)n(C)c2ccc(OCC(C)C)c(N)c2c1=O.Cl [Compound A194] | 0.18 | 0.58 | 0.05 | 1.3 | >2.5 | >2.5 | 0.49 | >2.5 | 0.45 | 1.7
4 | COc1c(OCC(C)C)ccc2c1c(=O)c(C)c(-c1ccccc1)n2C [Compound A196] | 0.86 (≈ 2.45 µM) | 1.1 (≈ 3.13 µM) | 5.9 (≈ 16.8 µM) | 1.9 (≈ 5.41 µM) | >10 | >10 | 1.8 (≈ 5.12 µM) | >10 | 0.44 (≈ 1.25 µM) | 9.7 (≈ 27.6 µM)
5 | COc1cc2c(=O)c(C)c(-c3ccccc3)n(C)c2cc1C(C)C [Compound A226] | <0.033 | 0.93 (≈ 2.89 µM) | 1.6 (≈ 4.98 µM) | >3.3 | >10 | >10 | 0.73 (≈ 2.27 µM) | >10 | 0.33 (≈ 1.03 µM) | 9.7 (≈ 30.2 µM)
6 | Cc1cc2c(cc1OCC(C)C)c(=O)c(C)c(-c1ccccc1)n2C [Compound A234] | 0.32 (≈ 0.954 µM) | 0.89 (≈ 2.65 µM) | 1.0 (≈ 2.98 µM) | 2.5 (≈ 7.45 µM) | >5 | >5 | 0.26 (≈ 0.775 µM) | >5 | 0.25 (≈ 0.745 µM) | 3.8 (≈ 11.3 µM)
7 | CCn1c(-c2ccccc2)c(C)c(=O)c2cc(OCC(C)C)c(C)cc21 [Compound A235] | 0.35 (≈ 1 µM) | 0.72 (≈ 2.06 µM) | 0.75 (≈ 2.15 µM) | 2.9 (≈ 8.3 µM) | >4 | >4 | 0.24 (≈ 0.687 µM) | >4 | 0.27 (≈ 0.773 µM) | 2.8 (≈ 8.01 µM)
8 | COc1ccc(-c2c(C)c(=O)c3cc(OCC(C)C)c(C)cc3n2C)cc1C [Compound A237] | 0.46 (≈ 1.21 µM) | 1.1 (≈ 2.9 µM) | 2.0 (≈ 5.27 µM) | 2.9 (≈ 7.64 µM) | >4 | >4 | 0.29 (≈ 0.764 µM) | >4 | 0.40 (≈ 1.05 µM) | >4
9 | Cc1c(-c2ccccc2)n(C)c2cc(C(C)C)c(OC(C)C)cc2c1=O [Compound A258] | 0.66 (≈ 1.89 µM) | 0.62 (≈ 1.77 µM) | 0.62 (≈ 1.77 µM) | >1.6 | >5 | 4.9 | 0.45 (≈ 1.29 µM) | 4.5 | 0.23 (≈ 0.658 µM) | 4.9 (≈ 14 µM)
10 | Cc1cc2c(c(C)c1OCC(C)C)c(=O)cc(-c1ccccc1)n2C [Compound A285] | 0.46 (≈ 1.37 µM) | 0.69 (≈ 2.06 µM) | 0.68 (≈ 2.03 µM) | 1.9 (≈ 5.66 µM) | >4 | >4 | 0.18 (≈ 0.537 µM) | >4 | 0.2 (≈ 0.596 µM) | 3.1 (≈ 9.24 µM)
11 | Cc1cc2c(c(C)c1OCC(C)C)c(=O)c(C)c(-c1ccccc1)n2C [Compound A286] | 0.61 (≈ 1.75 µM) | 1.3 (≈ 3.72 µM) | 0.87 (≈ 2.49 µM) | 1.4 (≈ 4.01 µM) | >5 | >5 | 0.23 (≈ 0.658 µM) | >5 | 0.57 (≈ 1.63 µM) | >5
12 | CCn1c(-c2ccccn2)cc(=O)c2cc(C(C)C)ccc21 [Compound A296] | 4.8 (≈ 16.4 µM) | 5.1 (≈ 17.4 µM) | 4.5 (≈ 15.4 µM) | 17 (≈ 58.1 µM) | >100 | 68 | 2.0 (≈ 6.84 µM) | 75 | 1.7 (≈ 5.81 µM) | 20 (≈ 68.4 µM)
13 | CC(C)c1ccc2c(c1)c(=O)cc(-c1ccco1)n2C [Compound A303] | 1.9 (≈ 7.11 µM) | 1.4 (≈ 5.24 µM) | 1.4 (≈ 5.24 µM) | 3.6 (≈ 13.5 µM) | >20 | >20 | 0.97 (≈ 3.63 µM) | >20 | 0.83 (≈ 3.1 µM) | 6.5 (≈ 24.3 µM)
14 | CC(C)c1ccc2c(c1)c(=O)cc(-c1ccn(C)c1)n2C [Compound A306] | 0.88 (≈ 3.14 µM) | 0.83 (≈ 2.96 µM) | 0.89 (≈ 3.17 µM) | 2.1 (≈ 7.49 µM) | 26 | 25 | 0.73 (≈ 2.6 µM) | 14 | 0.49 (≈ 1.75 µM) | 2.9 (≈ 10.3 µM)
15 | CCn1c(-c2ccn(C)c2)cc(=O)c2cc(C(C)C)ccc21 [Compound A307] | 0.86 (≈ 2.92 µM) | 0.79 (≈ 2.68 µM) | 0.83 (≈ 2.82 µM) | 1.3 (≈ 4.42 µM) | >20 | 18 | 0.39 (≈ 1.32 µM) | >20 | 0.34 (≈ 1.15 µM) | 1.9 (≈ 6.45 µM)
